The text below walks through data of patent US9867811B2, “Method of treating atherosclerosis in high triglyceride subjects” (NOVARTIS AG, priority 2011, dated 2018).

For experiment [1], the system named is CETP. The experiment in a line: Ex vivo CETP activity in plasma of hamsters (saline or Triton WR-1339 treated). Conditions: hamster; for Inhibition of plasma CETP activity: saline group, 8 h after dose; for Extent of CETP inhibition reduced by, relative to the saline group (74% inhibition): 10 mg/kg oral; for Increase in plasma CETP activity: 3 h after administration. Here is the method:
Nine- to ten-week-old, male golden Syrian hamsters were purchased from Japan SLC Inc. (Shizuoka, Japan). Animals underwent a more than 1-week acclimation period under the following conditions: 8:00/20:00 light/dark cycle, room temperature 23±2° C. […] During this time, animals received filtered (0.5 μm) water and a standard chow diet ad libitum.
Whole blood samples were collected using a heparin-washed syringe (Heparin sodium injection “Ajinomoto”; Ajinomoto, Tokyo, Japan) from the abdominal vein by venipuncture under isoflurane (Abbott Japan Co. Ltd.) inhalant anesthesia. After centrifugation at 15,000 rpm for 10 min at 4° C., heparinized plasma was prepared and stored at −80° C. until use.
CETP activity (RFU/min) was defined as the change in fluorescence intensity from 30 to 90 min.
The effect of an acute increase of plasma triglycerides in vivo (acute increase in triglyceride-rich particles) on the ability of Torcetrapib to alter plasma CETP activity, triglyceride and total cholesterol levels was investigated. Torcetrapib at doses of 3, 10 or 30 mg/kg or vehicle was administered once by gavage to hamsters fed a standard chow diet.
Compound or vehicle was administered once by gavage to hamsters fed a standard chow diet.

The nature of experiment [2]: Total cholesterol and triglyceride concentrations in hamster plasma. Conditions: for Increase in plasma total cholesterol / Increase in plasma triglycerides: 3 h after administration. The experiment is classed as in vivo. As for the experimental part: Nine- to ten-week-old, male golden Syrian hamsters were purchased from Japan SLC Inc. (Shizuoka, Japan). Animals underwent a more than 1-week acclimation period under the following conditions: 8:00/20:00 light/dark cycle, room temperature 23±2° C. (range), 55±15% (range) humidity. During this time, animals received filtered (0.5 μm) water and a standard chow diet ad libitum.
(§1) To induce an acute increase in plasma triglyceride levels, Triton WR-1339 (Cat. No. 35418-12, Nacalai Tesque Inc, Kyoto, Japan) was dissolved in saline (Otsuka Normal Saline, Otsuka Pharmaceuticals, Tokushima, Japan) at a concentration of 2.5 to 10% (w/w), and was intravenously administered at a volume of 2 mL/kg from the basilic vein under isoflurane (FORANE®, Abbott Japan Co. Ltd., Tokyo, Japan) inhalant anesthesia. Whole blood samples were collected using a heparin-washed syringe (Heparin sodium injection “Ajinomoto”; Ajinomoto, Tokyo, Japan) from the abdominal vein by venipuncture under isoflurane (Abbott Japan Co. Ltd.) inhalant anesthesia. After centrifugation at 15,000 rpm for 10 min at 4° C., heparinized plasma was prepared and stored at −80° C. until use.
Compounds (CETP inhibitors) were suspended in 0.5% methyl cellulose (Methyl cellulose 400 cP, Cat. No. 138-05072, Wako Pure Chemical Industries, Osaka, Japan) solution, which was used as a vehicle. Compound or vehicle (10 mL/kg) was administered once by oral gavage 5 h before administration of Triton WR-1339.
Cholesterol and triglyceride concentrations in plasma and serum were measured manually with kits (Cholesterol E-test, Cat. No. 439-17501, and Triglyceride E-test, Cat. No. 432-40201, Wako Pure Chemical, Osaka, Japan).

Experiment [3] relates to CETP. Put plainly: Ex vivo plasma CETP activity assay with exogenously added compound (maximum inhibition). The experiment is classed as biochemical. The following applies: 10 μM, hamster plasma (80% plasma). Here is the method:
Plasma CETP activity ex vivo was determined as followed: 50 μL of hamster plasma (final 80% plasma) was mixed with 10 μL of donor solution diluted with assay buffer composed of 50 mM Tris-HCl (pH7.4) containing 150 mM NaCl and 2 mM EDTA in a 96-well half area black flat bottom plate (Cat. No. 3686, Corning, Corning, N.Y.). Fluorescence intensity was measured every 15 min at an excitation wave length of 485 nm and an emission wavelength of 535 nm for 120 min at 37° C. using ARVO SX+L (PerkinElmer, Wellesley, Mass.). CETP activity (RFU/min) was defined as the change in fluorescence intensity from 30 to 90 min.

For experiment [4], the system named is CETP. The experiment in a line: Plasma CETP concentrations (ELISA) in hamsters. The experiment is classed as in vivo. Conditions: hamster, Triton WR-1339 i.v., any dose. Here is the method: as §1
Plasma CETP concentrations were measured using an enzyme-linked […] assay (ELISA) kit (Cat No. 278181, Daiichi Pure Chemicals, Tokyo, Japan). Recombinant human CETP protein was used as a standard. Hamster plasma was diluted 250-fold by the dilution buffer in the kit, and then CETP concentration was measured according to the manufacturer's protocol.
(In general: ELISA stands for enzyme-linked immunosorbent assay.)

Experiment [5] is described as follows: HPLC lipoprotein analysis in hamster plasma. In kind it is in vivo. Here is the method:
as §1
An HPLC-size exclusion chromatography system with an on-line enzymatic dual detection system for lipids has been used for lipoprotein analysis. Plasma samples were diluted (5-fold) with saline after filtration (0.45 μm, Millipore Co, Cat. No. UFC30HV00) and injected into the HPLC system at a volume of 100 μL (as 20 μL of plasma), every 95 min, using an auto-sampler. Plasma lipoproteins were separated using a single Superose 6 column and filtered phosphate buffered saline (0.45 μm, Millipore Co., Bedford, Mass., Cat. No. SJHVM4710; PBS, Dainippon Pharmaceutical, Osaka, Japan Cat. No. 28-103-05 FN) at a flow rate of 0.5 mL/min. Each enzymatic reagent was pumped at a flow rate of 0.25 mL/min. Both enzymatic reactions proceeded at 37° C. in a reactor coil (Teflon tube, 15 m×0.4 mm id) in the column oven. The color developed after the enzyme reaction was measured at 580 nm, and the electric signal was monitored (every 0.5 second).
A control pooled EDTA-plasma sample was used to standardize the cholesterol and phospholipid levels in lipoproteins. Cholesterol and phospholipid levels in the control plasma were measured manually with kits (Cholesterol E-test, Cat. No. 439-17501, and Phospholipid C-test, Cat. No. 433-36201, respectively, Wako Pure Chemical Industries), and the concentrations were 121.8 and 216.8 mg/dL, respectively. Concentrations of VLDL, LDL, and HDL-cholesterol and -phospholipid levels were calculated using chromatogram areas observed for control hamster plasma samples. With this methodology, the retention times of control hamster VLDL, LDL, and HDL were 18.5-24.0, 24.0-30.5, and 31.5-42.0 min, respectively.

Regarding `CCOC(=O)N1c2ccc(C(F)(F)F)cc2[C@@H](N(Cc2cc(C(F)(F)F)cc(C(F)(F)F)c2)C(=O)OC)C[C@H]1CC` [Torcetrapib], the entries for the “Differences between the saline and WR-1339 groups in the extent of CETP inhibition” value in the experiment with CETP [1] (3 mg/kg oral gavage), with CETP [1] (10 mg/kg oral gavage) and in the experiment on CETP [1] (30 mg/kg oral gavage (P<0.01)) were 5.5%, 13% and 35%, respectively. For the same compound, the “Inhibition of plasma CETP activity” value in the experiment on CETP [1] (3 mg/kg oral gavage) amounted to 38%; in the experiment with CETP [1] (10 mg/kg oral gavage), 74%; in the experiment on CETP [1] (30 mg/kg oral gavage) it was 88%. For the same compound, the “Extent of CETP inhibition reduced by, relative to the saline group (74% inhibition)” value is on record as 44% in the experiment on CETP [1] (Triton WR-1339 50 mg/kg i.v.) and 13% with CETP [1] (Triton WR-1339 100 mg/kg i.v.). In addition, the “Inhibition of CETP activity, lower dose group, Triton WR-1339 group” value in the experiment with CETP [1] (oral gavage: Torcetrapib 5 mg/kg, Anacetrapib 1.5 mg/kg, Example 49 1.5 mg/kg, Example 8 0.75 mg/kg, Triton WR-1339 100 mg/kg i.v., not significant vs vehicle) was determined as 13%. For the same compound, the “Inhibition of CETP activity, lower dose group, saline group” value with CETP [1] (oral gavage: Torcetrapib 5 mg/kg, Anacetrapib 1.5 mg/kg, Example 49 1.5 mg/kg, Example 8 0.75 mg/kg, saline i.v.) was 60%. In addition, the “Inhibition of CETP activity, higher dose group, Triton WR-1339 group” value in the experiment with CETP [1] (oral gavage: Torcetrapib 10 mg/kg, Anacetrapib 3 mg/kg, Example 49 3 mg/kg, Example 8 1.5 mg/kg, Triton WR-1339 100 mg/kg i.v.) was 8%. The “Inhibition of CETP activity, higher dose group, saline group” value in the experiment with CETP [1] (oral gavage: Torcetrapib 10 mg/kg, Anacetrapib 3 mg/kg, Example 49 3 mg/kg, Example 8 1.5 mg/kg, saline i.v.) worked out at 75%. Besides, the “Effect on plasma triglycerides” value in experiment [2] (Triton WR-1339 treatment groups) is “did not affect”. Further, the “Effect on plasma triglyceride levels” value in experiment [2] (saline group, 3 and 30 mg/kg oral doses) is reported as “slightly, but significantly, lowered”. Moreover, the “Effect on total cholesterol levels” value in experiment [2] (saline or Triton WR-1339 groups) is “not changed”. Moreover, in the experiment with CETP [3] (Triton WR-1339 group), the “Maximum inhibition of CETP activity, compound exogenously added, Triton WR-1339 group” value was “around 75%”. In the experiment with CETP [3] (saline group), the “Maximum inhibition of CETP activity, compound exogenously added, saline group” value is recorded as around 100%.
For Triton WR-1339, the “Increase in plasma CETP activity” value with CETP [1] (Triton WR-1339 50 mg/kg i.v.) amounted to 1.7 fold; with CETP [1] (Triton WR-1339 100 mg/kg i.v.), 3.7 fold. In addition, the “Increase in plasma total cholesterol” value in experiment [2] (Triton WR-1339 50 mg/kg i.v.) came to 1.2 fold; in experiment [2] (Triton WR-1339 100 mg/kg i.v.), 1.4 fold. For the same compound, the “Increase in plasma triglycerides” value in experiment [2] (Triton WR-1339 50 mg/kg i.v.) is 2.0 fold; in experiment [2] (Triton WR-1339 100 mg/kg i.v.), 4.0 fold. Also, the “Time of maximum increase in triglyceride levels after administration” value in experiment [2] (Triton WR-1339 50, 100 or 200 mg/kg i.v.) is 8 h. Further, the “Effect on plasma CETP concentrations” value with CETP [4] is “did not significantly affect”. In addition, the “Effect on HDL-cholesterol” value in experiment [5] (Triton WR-1339 50 mg/kg i.v.) is on record as “not changed”; in experiment [5] (Triton WR-1339 100 mg/kg i.v.), “reduced”. Further, in experiment [5] (Triton WR-1339 i.v.), the “Effect on LDL-cholesterol” value is on record as “reduced”. The “Effect on cholesterol content of VLDL” value in experiment [5] (Triton WR-1339 i.v. compared to saline group) is listed as “increased”.
